Experimental data: patent EP0952771B1, “NOVEL SAPONIN COMPOSITIONS AND USES THEREOF” (priority 1996, dated 1998)

Columns and labels:
[1] = test system: E.G7-OVA target cells; assay: Cytotoxic T lymphocyte (CTL) 51Cr cytotoxicity assay with splenic mononuclear cells of immunized mice; type: in vivo, C57BL/6 mice; settings: subcutaneously at week 1, 3 and 5
Description: (§1) All experiments were carried out in C57BL/6 mice (female, 8-12 weeks of age). The synergistic adjuvant-effect of the QS-21/QS-7 mixtures was assessed by two parameters: (1) the ability of these mixtures to improve antibody titers to a subunit antigen, ovalbumin, in mice; and (2) the ability of these mixtures to improve an ovalbumin-specific cytotoxic T lymphocyte (killer cell) response in mice.
The experimental techniques were the following. The mice were immunized subcutaneously at week 1, 3, and 5 with 0.2 ml of the indicated formulations in phosphate-buffered saline. Mice were immunized in groups of five. Sera and spleens were harvested at weeks 7 to 9. Sera was assayed for anti-ovalbumin antibody response by enzyme immunoassay. Briefly, a 96 well Immulon plate was coated with 10 µg/ml ovalbumin in phosphate-buffered saline (PBS) overnight at 4°C. These plates were blocked with 10% normal goat serum in PBS (diluent) for one hour at room temperature. Serial 1:10 dilutions of serum were made in diluent and were incubated on the plates for one hour at room temperature or overnight at 4°C. An enzyme conjugate of anti-mouse IgG (or anti-mouse IgG subclass) was diluted in diluent and incubated on the plate. A colorimetric enzyme substrate, tetramethylbenzidine, was used to assay for binding of anti-ovalbumin antibody. Spleens from immunized mice were used to assay for the cytotoxic T lymphocyte (CTL) response. The effector cells for the (CTL) assay were splenic mononuclear cells from the harvested spleens. The antigen-positive target cells for the assay were E.G7-OVA cells, which are an MHC class II antigen-negative EL4 mouse cell line, transfected with the ovalbumin gene. […] EL4 cells were used as an ovalbumin-negative target cell line. Prior to assay, splenic mononuclear cells were stimulated with antigen to induce maturation of precursor CTL in the effector cell population. The antigens used for stimulation were mitomycin C treated E.G7-OVA cells (incubated with spleen cells at a ratio of 20:1 spleen cells: E.G7-OVA cells) or denatured ovalbumin (25 µg/ml). […]

[2] = test system: ovalbumin; settings: at 2.5 µg or lower; cited from earlier work
[3] = test system: mice; settings: mouse, in vivo; cited from earlier work
[4] = test system: anti-ovalbumin antibody; assay: Anti-ovalbumin antibody response in serum by enzyme immunoassay; type: in vivo, C57BL/6 mice; settings: 0.625 µg given individually; titer not higher than no adjuvant
Description: as §1
The experimental techniques were the following. The mice were immunized subcutaneously at week 1, 3, and 5 with 0.2 ml of the indicated formulations in phosphate-buffered saline. Mice were immunized in groups of five. Sera and spleens were harvested at weeks 7 to 9. Sera was assayed for anti-ovalbumin antibody response by enzyme immunoassay. Briefly, a 96 well Immulon plate was coated with 10 µg/ml ovalbumin in phosphate-buffered saline (PBS) overnight at 4°C. These plates were blocked with 10% normal goat serum in PBS (diluent) for one hour at room temperature. Serial 1:10 dilutions of serum were made in diluent and were incubated on the plates for one hour at room temperature or overnight at 4°C. An enzyme conjugate of anti-mouse IgG (or anti-mouse IgG subclass) was diluted in diluent and incubated on the plate. A colorimetric enzyme substrate, tetramethylbenzidine, was used to assay for binding of anti-ovalbumin antibody. […]

[5] = test system: ovalbumin antigen; settings: doses below 2.5 µg; cited from earlier work

## QS-21
[1]; saponin dose 0.625 µg given alone with ovalbumin
  stimulating a CTL response: ineffective
[1]; saponin dose 1.25 µg given alone with ovalbumin
  stimulating a CTL response: ineffective
[1]; saponin dose 20 µg given alone with ovalbumin
  stimulating a CTL response: highly effective
[2]
  cytotoxic T lymphocyte (CTL) response to ovalbumin: minimal
[3]
  toxicity in mice: least toxic
[4]
  titer compared with no adjuvant: suboptimal
[5]
  adjuvant for raising an antibody response to the ovalbumin antigen: ineffective
